Assay results as given in patent US20200407717A1, “METHODS OF MODULATING ANTISENSE ACTIVITY” (Ionis Pharmaceuticals, Inc., priority 2018, published 2020).
In the oligonucleotide strings, read from the 5' end, every base follows the letter of its sugar. An asterisk marks phosphorothioate; unmarked linkages are phosphodiester. Other units and linkages are bracketed, terminal groups are in braces. A string of capitals states the bases alone. e = 2'-O-(2-methoxyethyl) (MOE); {FITC} = fluorescein label; [5mC] = 5-methylcytosine; d = 2'-deoxy (DNA)

How the values were obtained:
EGFR [1] = molecular target: T1, EGFR (Homo sapiens, UniProt P00533); assay: Membrane binding assay, EGFR; design: purchased ThermoFisher PV3872; details: EGFR 2.3 nM (head prints [EGF])
Purified recombinant EGF [2] = molecular target: T2, Purified recombinant EGF (Homo sapiens, UniProt P01133); assay: Membrane binding assay, EGF; details: [EGF] 2.5 nM
T2 construct: purchased ThermoFisher PHG0311L
T2 sequence (P01133 971-1023 limits assumed): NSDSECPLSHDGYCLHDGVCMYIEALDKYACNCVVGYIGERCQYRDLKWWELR

EGFR [3] = molecular target: T1, EGFR; assay: Membrane binding assay, EGFR; design: purchased ThermoFisher PV3872
Description: (§1) A membrane binding assay was performed to test the binding affinities of modified oligonucleotides to EGF and EGFR. Purified recombinant EGF (PHG0311L, ThermoFisher) or EGFR protein (PV3872, ThermoFisher) were incubated with FITC-labeled phosphorothioate oligonucleotide, compound no. 256903 or FITC-labeled phosphate oligonucleotide, PO-ASO, in binding buffer (20 mM Tris-HCl, pH 7.5, 150 mM NaCl, 1 mM DTT, 10% glycerol) for 1 hr at 37° C. Each reaction contained purified EGF at 3 nM to 3 μM or recombinant EGFR at 5 nM to 150 nM. Samples were loaded onto a hyband ECL nitrocellulose membrane (GE Healthcare) and soaked in wash buffer (20 mM Tris-HcCl, pH 7.5, 250 mM NaCl). Protein-bound ASOs were transferred to the membrane by applying a vaccum in a 96-well Bio-Rad Bio-Dot apparatus. After washing, membranes were air-dried and scanned using a phoshoimager (GE Healthcare). Kds were calculated for compound no. 256903 using Prism. The results below represent an average of three replicate experiments. […] In contrast, compound no. 256903 bound to both EGF and EGFR, with a higher affinity for EGFR than for EGF.

Purified recombinant EGF [4] = molecular target: T2, Purified recombinant EGF; assay: Membrane binding assay, EGF
Description: as §1

Substance: FITC-^mCesTesGes^mCesTesAdsGds^mCds^mCdsTds^mCdsTdsGdsGdsAdsTesTesTesGesAe (antisense {FITC}-e[5mC]*eT*eG*e[5mC]*eT*dA*dG*d[5mC]*d[5mC]*dT*d[5mC]*dT*dG*dG*dA*eT*eT*eT*eG*eA) [compound 256903]
- Relative intensity (%) (EGFR [1]): 7.0%
- Relative intensity (%) (Purified recombinant EGF [2]): 8.8%
- Relative intensity (%) (EGFR [3]; EGFR 4.7 nM (head prints [EGF])): 9.0%
- interaction with EGFR (EGFR [3]; EGFR 5 nM to 150 nM): bound
- Relative intensity (%) (EGFR [3]; EGFR 9.4 nM (head prints [EGF])): 9.0%
- Relative intensity (%) (EGFR [3]; EGFR 18.8 nM (head prints [EGF])): 10.3%
- Relative intensity (%) (EGFR [3]; EGFR 37.5 nM (head prints [EGF])): 40.5%
- Relative intensity (%) (EGFR [3]; EGFR 75 nM (head prints [EGF])): 80.0%
- Relative intensity (%) (EGFR [3]; EGFR 150 nM (head prints [EGF])): 102.7%
- Kd (EGFR [3]; binding affinity for EGFR, average of three replicate experiments): 51.5 ± 9.3 nM
- interaction with EGF (Purified recombinant EGF [4]; EGF 3 nM to 3 μM): bound
- Relative intensity (%) (Purified recombinant EGF [4]; [EGF] 5 nM): 10.2%
- Relative intensity (%) (Purified recombinant EGF [4]; [EGF] 10 nM): 12.0%
- Relative intensity (%) (Purified recombinant EGF [4]; [EGF] 20.9 nM): 12.8%
- Relative intensity (%) (Purified recombinant EGF [4]; [EGF] 41.9 nM): 13.7%
- Relative intensity (%) (Purified recombinant EGF [4]; [EGF] 93.8 nM): 15.7%
- Relative intensity (%) (Purified recombinant EGF [4]; [EGF] 187.5 nM): 17.0%
- Relative intensity (%) (Purified recombinant EGF [4]; [EGF] 375 nM): 22.3%
- Relative intensity (%) (Purified recombinant EGF [4]; [EGF] 750 nM): 72.3%
- Relative intensity (%) (Purified recombinant EGF [4]; [EGF] 1500 nM): 95.2%
- Relative intensity (%) (Purified recombinant EGF [4]; [EGF] 3000 nM): 97.3%
- Kd (Purified recombinant EGF [4]; binding affinity for EGF, average of three replicate experiments): 570 ± 170 nM
